From patent publication US6319702A, “Nucleic acids encoding mutant human carboxypeptidase A enzymes” (Glaxo Wellcome, Inc., priority 1993, dated 2001)
Where two headings read alike, the source gives them in different places.

Columns and labels:
[1] = Stability and biodistribution of prodrugs in vivo (HPLC of plasma and tissues); set-up: species or system mice (CD-1 nude; BALB/C where indicated); settings: for stability in vivo (in words): mice
[2] = target: T1, wild type human carboxypeptidase A1 (Homo sapiens, UniProt P15085); assay: Enzyme kinetics of prodrugs with wild type human carboxypeptidase A1 (coupled assay); type: biochemical
T1 sequence (P15085 111-419): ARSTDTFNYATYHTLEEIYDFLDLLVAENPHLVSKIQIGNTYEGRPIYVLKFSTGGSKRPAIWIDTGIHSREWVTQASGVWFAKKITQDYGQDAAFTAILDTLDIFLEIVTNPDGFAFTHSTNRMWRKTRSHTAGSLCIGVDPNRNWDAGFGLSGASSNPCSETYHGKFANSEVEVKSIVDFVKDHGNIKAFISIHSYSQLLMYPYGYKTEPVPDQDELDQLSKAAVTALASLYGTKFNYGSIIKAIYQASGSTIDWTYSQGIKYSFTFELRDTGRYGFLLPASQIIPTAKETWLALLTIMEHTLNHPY
In short: (§1)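 Coupled spectrophotometric assay: released methotrexate converted by excess carboxypeptidase G (17 milliunits) to its pteroate, followed at 315 nm (Δε 9.57 mM^-1 cm^-1). 25° C in 25 mM tris-HCl, 100 mM NaCl, pH 7.4; reaction started with wild-type or mutant carboxypeptidase A. Kinetic constants from initial velocities by Michaelis-Menten analysis.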

[3] = tested on: 268ala; assay: Enzyme kinetics of prodrugs with 268ala mutant of human CPA1 (coupled assay); type: biochemical; settings: 25° C., pH 7.4
In short: as §1

[4] = tested on: 268gly; assay: Enzyme kinetics of prodrugs with 268gly mutant of human CPA1 (coupled assay); type: biochemical; settings: for kcat/Km: 268Gly
In short: as §1

[5] = tested on: mutant enzyme; assay: Substrate behaviour with mutant enzyme; type: biochemical, human
Excerpt: This type of compound is not useful for ADEPT.

[6] = in vivo; settings: mouse, iv
[7] = CECUM, 30 min, 50 mg/kg i.p. or i.v., CD-1 nude mice
[8] = CECUM, 120 min, 50 mg/kg i.p. or i.v., CD-1 nude mice
[9] = FECES, 30 min, 50 mg/kg i.p. or i.v., CD-1 nude mice
[10] = FECES, 120 min, 50 mg/kg i.p. or i.v., CD-1 nude mice
[11] = KIDNEY, 30 min, 50 mg/kg i.p. or i.v., CD-1 nude mice
[12] = KIDNEY, 120 min, 50 mg/kg i.p. or i.v., CD-1 nude mice
[13] = LARGE INTESTINE, 30 min, 50 mg/kg i.p. or i.v., CD-1 nude mice
[14] = LARGE INTESTINE, 120 min, 50 mg/kg i.p. or i.v., CD-1 nude mice
[15] = LIVER, 30 min, 50 mg/kg i.p. or i.v., CD-1 nude mice
[16] = LIVER, 120 min, 50 mg/kg i.p. or i.v., CD-1 nude mice
[17] = SMALL INTESTINE, 30 min, 50 mg/kg i.p. or i.v., CD-1 nude mice
[18] = SMALL INTESTINE, 120 min, 50 mg/kg i.p. or i.v., CD-1 nude mice
[19] = SPLEEN, 30 min, 50 mg/kg i.p. or i.v., CD-1 nude mice
[20] = mouse, cecum, 50 mg/kg, CECUM, 30 min, 50 mg/kg i.p. or i.v., CD-1 nude mice, read-out: stability: percentage of material observed as intact prodrug, cecum
[21] = mouse, cecum, 50 mg/kg, CECUM, 120 min, 50 mg/kg i.p. or i.v., CD-1 nude mice, read-out: stability: percentage of material observed as intact prodrug, cecum
[22] = mouse, feces, 50 mg/kg, FECES, 30 min, 50 mg/kg i.p. or i.v., CD-1 nude mice, read-out: stability: percentage of material observed as intact prodrug, feces (converted)
[23] = mouse, feces, 50 mg/kg, FECES, 120 min, 50 mg/kg i.p. or i.v., CD-1 nude mice, read-out: stability: percentage of material observed as intact prodrug, feces
[24] = mouse, kidney, 50 mg/kg, KIDNEY, 30 min, 50 mg/kg i.p. or i.v., CD-1 nude mice, read-out: stability: percentage of material observed as intact prodrug, kidney
[25] = mouse, kidney, 50 mg/kg, KIDNEY, 120 min, 50 mg/kg i.p. or i.v., CD-1 nude mice, read-out: stability: percentage of material observed as intact prodrug, kidney
[26] = mouse, large intestine, 50 mg/kg, LARGE INTESTINE, 30 min, 50 mg/kg i.p. or i.v., CD-1 nude mice, read-out: stability: percentage of material observed as intact prodrug, large intestine
[27] = mouse, large intestine, 50 mg/kg, LARGE INTESTINE, 120 min, 50 mg/kg i.p. or i.v., CD-1 nude mice, read-out: stability: percentage of material observed as intact prodrug, large intestine
[28] = mouse, liver, 50 mg/kg, LIVER, 30 min, 50 mg/kg i.p. or i.v., CD-1 nude mice, read-out: stability: percentage of material observed as intact prodrug, liver (converted)
[29] = mouse, liver, 50 mg/kg, LIVER, 120 min, 50 mg/kg i.p. or i.v., CD-1 nude mice, read-out: stability: percentage of material observed as intact prodrug, liver
[30] = mouse, plasma, 50 mg/kg, PLASMA, 30 min, 50 mg/kg i.p. or i.v., CD-1 nude mice, read-out: concentration of prodrug in plasma
[31] = mouse, plasma, 50 mg/kg, PLASMA, 30 min, 50 mg/kg i.p. or i.v., CD-1 nude mice, read-out: stability: percentage of material observed as intact prodrug, plasma
[32] = mouse, small intestine, 50 mg/kg, SMALL INTESTINE, 30 min, 50 mg/kg i.p. or i.v., CD-1 nude mice, read-out: stability: percentage of material observed as intact prodrug, small intestine
[33] = mouse, small intestine, 50 mg/kg, SMALL INTESTINE, 120 min, 50 mg/kg i.p. or i.v., CD-1 nude mice, read-out: stability: percentage of material observed as intact prodrug, small intestine
[34] = mouse, spleen, 50 mg/kg, SPLEEN, 30 min, 50 mg/kg i.p. or i.v., CD-1 nude mice, read-out: stability: percentage of material observed as intact prodrug, spleen

CN(Cc1cnc2nc(N)nc(N)c2n1)c1ccc(C(=O)N[C@@H](CCC(=O)O)C(=O)N[C@@H](Cc2ccccc2C2CCCC2)C(=O)O)cc1 [Prodrug 8]
concentration of prodrug in cecum [1, 7]: 6.8 nmol/g
concentration of prodrug in cecum [1, 8]: 235.1 nmol/g
concentration of prodrug in feces [1, 9]: 150.2 nmol/g
concentration of prodrug in feces [1, 10]: 646.2 nmol/g
concentration of prodrug in kidney [1, 11]: 5.6 nmol/g
concentration of prodrug in kidney [1, 12]: 3.2 nmol/g
concentration of prodrug in large intestine [1, 13]: 5.2 nmol/g
concentration of prodrug in large intestine [1, 14]: 27.3 nmol/g
concentration of prodrug in liver [1, 15]: 113.5 nmol/g
concentration of prodrug in liver [1, 16]: 43.9 nmol/g
concentration of prodrug in small intestine [1, 17]: 364.5 nmol/g
concentration of prodrug in small intestine [1, 18]: 31.7 nmol/g
concentration of prodrug in spleen [1, 19]: 1.4 nmol/g
concentration of prodrug in spleen ([1]; SPLEEN, 120 min, 50 mg/kg i.p. or i.v., CD-1 nude mice): 1.1 nmol/g
stability in vivo (in words) ([1]; 50 mg/kg): stable in vivo
remaining at 0.5 h [1, 20]: 75%
remaining at 2 h [1, 21]: 56%
remaining at 0.5 h [1, 22]: 71%
remaining at 2 h [1, 23]: 55%
remaining at 0.5 h [1, 24]: 84%
remaining at 2 h [1, 25]: 81%
remaining at 0.5 h [1, 26]: 93%
remaining at 2 h [1, 27]: 57%
remaining at 0.5 h [1, 28]: 90%
remaining at 2 h [1, 29]: 76%
concentration at 0.5 h [1, 30]: 28.5 µM
remaining at 0.5 h [1, 31]: 95%
concentration at 2 h ([1]; mouse, plasma, 50 mg/kg, PLASMA, 120 min, 50 mg/kg i.p. or i.v., CD-1 nude mice, read-out: concentration of prodrug in plasma): 1100 nM
remaining at 2 h ([1]; mouse, plasma, 50 mg/kg, PLASMA, 120 min, 50 mg/kg i.p. or i.v., CD-1 nude mice, read-out: stability: percentage of material observed as intact prodrug, plasma): 90%
remaining at 0.5 h [1, 32]: 77%
remaining at 2 h [1, 33]: 35%
remaining at 0.5 h [1, 34]: 98%
remaining at 2 h ([1]; mouse, spleen, 50 mg/kg, SPLEEN, 120 min, 50 mg/kg i.p. or i.v., CD-1 nude mice, read-out: stability: percentage of material observed as intact prodrug, spleen): 100%
kcat/Km for human CPA1 compared with that of the L-phenylalanine prodrug (in words) [2]: much lower
substrate for wild type CPA (in words) [2]: not for the wild type enzyme
kcat ([2]; Human CPA1, 25° C., pH 7.4): 0.012 s⁻¹
Km [3]: 56 µM
kcat [3]: 0.088 s⁻¹
kcat/Km [4]: 0.157 µM⁻¹ s⁻¹
Km ([4]; 268gly, 25° C., pH 7.4): 15 µM
kcat ([4]; 268gly, 25° C., pH 7.4): 2.35 s⁻¹
substrate for a mutant enzyme (in words) [5]: good substrates for a mutant enzyme
MTD [6]: ≥ 20 mg/kg

CN(Cc1cnc2nc(N)nc(N)c2n1)c1ccc(C(=O)N[C@@H](CCC(=O)O)C(=O)N[C@@H](Cc2cccc(C3CCCC3)c2)C(=O)O)cc1 [Prodrug 9]
concentration of prodrug in cecum [1, 7]: 4.l
concentration of prodrug in cecum [1, 8]: 108.3 nmol/g
concentration of prodrug in feces ([1]; FECES, 30 min, 50 mg/kg i.p. or i.v., BALB/C mice): 1604.27 nmol/g
concentration of prodrug in feces [1, 9]: 1104.1 nmol/g
concentration of prodrug in feces [1, 10]: 1505.7 nmol/g
concentration of prodrug in kidney [1, 11]: 6.8 nmol/g
concentration of prodrug in kidney [1, 12]: 1.3 nmol/g
concentration of prodrug in large intestine [1, 13]: 2.6 nmol/g
concentration of prodrug in large intestine [1, 14]: 6.2 nmol/g
concentration of prodrug in liver [1, 15]: 54.3 nmol/g
concentration of prodrug in liver [1, 16]: 126.2 nmol/g
concentration of prodrug in small intestine ([1]; SMALL INTESTINE, 30 min, 50 mg/kg i.p. or i.v., BALB/C mice): 420.3 nmol/g
concentration of prodrug in small intestine [1, 17]: 377.9 nmol/g
concentration of prodrug in small intestine [1, 18]: 211.0 nmol/g
concentration of prodrug in spleen [1, 19]: 8.4 nmol/g
stability in vivo (in words) ([1]; 50 mg/kg): stable in vivo
remaining at 0.5 h [1, 20]: 100%
remaining at 2 h [1, 21]: 99%
remaining at 0.5 h ([1]; mouse, feces, 50 mg/kg, FECES, 30 min, 50 mg/kg i.p. or i.v., BALB/C mice, read-out: stability: percentage of material observed as intact prodrug, feces (converted)): 98%
remaining at 0.5 h [1, 22]: 97%
remaining at 2 h [1, 23]: 94%
remaining at 0.5 h [1, 24]: 100%
remaining at 2 h [1, 25]: 100%
remaining at 0.5 h [1, 26]: 100%
remaining at 2 h [1, 27]: 100%
remaining at 0.5 h [1, 28]: 83%
remaining at 2 h [1, 29]: 94%
concentration at 0.5 h ([1]; mouse, plasma, 50 mg/kg, PLASMA, 30 min, 50 mg/kg i.p. or i.v., BALB/C mice, read-out: concentration of prodrug in plasma): 4.9 µM
remaining at 0.5 h ([1]; mouse, plasma, 50 mg/kg, PLASMA, 30 min, 50 mg/kg i.p. or i.v., BALB/C mice, read-out: stability: percentage of material observed as intact prodrug, plasma): 100%
concentration at 0.5 h [1, 30]: 1.1 µM
remaining at 0.5 h [1, 31]: 100%
remaining at 0.5 h ([1]; mouse, small intestine, 50 mg/kg, SMALL INTESTINE, 30 min, 50 mg/kg i.p. or i.v., BALB/C mice, read-out: stability: percentage of material observed as intact prodrug, small intestine): 98%
remaining at 0.5 h [1, 32]: 97%
remaining at 2 h [1, 33]: 93%
remaining at 0.5 h [1, 34]: 100%
human CPA catalyzed reaction (in words) [2]: not measureable
kcat/Km for human CPA1 compared with that of the L-phenylalanine prodrug (in words) [2]: much lower
substrate for wild type CPA (in words) [2]: not for the wild type enzyme
kcat/Km [4]: 0.092 µM⁻¹ s⁻¹
substrate for a mutant enzyme (in words) [5]: good substrates for a mutant enzyme
